“And” between values parts separate entries of the source, which are not always exact repeats. Equal entries are not always repeated. “Also recorded” adds a separate entry of the source.
Assays:
HepG2/C3A cells [1] = experiment: TUNEL apoptosis assay; format: cell-based, human; conditions: 24 hours exposure to 200 μM
Protocol: PMDS microwell inserts were removed from the bioreactor following 24 hours exposure to rotenone or troglitazone. Cholestasis was evaluated using 5(6)-carboxy-2′, 7′-dichlorofluorescein diacetate (CDFDA) cell permeable dye which is metabolized to fluorescent CDF and secreted to active bile canaliculi by active multidrug resistance-associated protein 2 (MRP2). Briefly, cells were incubated with 2 μg/mL of CDFDA and 1 μg/mL of Hoechst 33342 for 20 min, and washed with PBS. Number of bile canaliculi foci was normalized for number of Hoechst-labeled nuclei. Apoptosis was evaluated using DeadEnd™ fluorometric TUNEL system (Promega, USA) according to manufacturer directions. Briefly, cells were fixed in 4% paraformaldehyde, permeabilized and exposed to fluorescein-12-dUTP and terminal deoxynucleotidyl transferase (TdT), dyeing apoptotic nuclei green. The reaction was subsequently stopped and the cells counterstained for Hoechst. A percent apoptotic nucleus was calculated by dividing the number of TUNEL to Hoechst positive nuclei.

isolated mitochondria = experiment: Oxygen consumption rate of ADP-stimulated isolated mitochondria; format: biochemical; conditions: 50 μM injected after ADP; no enzymatic activation
Protocol: Mitochondria were isolated using a Mitochondria Isolation Kit (Abcam, UK) per manufacturer instructions. Briefly, 10^7 cells were collected and ruptured using 30 strokes in a pre-cooled dounce homogenizer. Homogenate was centrifuged twice at 1,000×g for 10 minutes at 4° C. to remove debris, and finally at 12,000×g for 15 minutes at 4° C. Pellet containing the isolated mitochondria was resuspended in a protease inhibitor cocktail. Protein concentration was determined using Bradford. 20 μg of mitochondrial protein per well was plated in gelatin-coated SeaHorse XFp cell culture miniplate and centrifuged at 3,000×g for 20 minutes at 4° C. in mitochondrial assay solution (MAS) as previously described (29). Oxygen consumption rate (OCR) was measured by the XFp Extracellular Flux Analyzer (Seahorse Biosciences, USA). Mitochondrial activity was profiled by successive injections of ADP (Sigma-Aldrich, Israel) and 50 μM of troglitazone, rotenone or DMSO control.

HepG2/C3A cells [2] = experiment: Quantification of ATP/ADP ratio; format: cell-based, human; conditions: 50 μM
Protocol: Intracellular ATP and ADP quantification was carried out using Abeam ADP/ATP Assay Kit (#ab65313), according to manufacturer's instructions. […] Cells were incubated in nucleotide releasing buffer for 5 min at room temperature, with gentle shaking. Background bioluminescence reading of the reaction mix was taken for calibration, followed by 2 min incubation of 50 μl sample solution in each reaction well, and a bioluminescence reading to measure cellular ATP content. ADP converting enzyme was then added, as instructed, following incubation of 2 min at room temperature to measure total ADP+ATP.

Structure (SMILES): C=C(C)[C@H]1Cc2c(ccc3c2O[C@@H]2COc4cc(OC)c(OC)cc4[C@@H]2C3=O)O1 [rotenone]
- increase in apoptosis (TUNEL) (HepG2/C3A cells [1]): 14 fold and 14±2 fold
- loss of OCR / inhibition of mitochondrial respiration in isolated mitochondria (isolated mitochondria): immediate; also recorded: directly inhibit mitochondrial respiration in minutes
- decrease in ATP/ADP ratio (HepG2/C3A cells [2]): 47%
